Measurements from patent publication US11890318B2, “Methods and compositions for modulating appetite and intake of sodium” (California Institute of Technology, priority 2019, dated 2024).
Entries after “also recorded” stand apart in the source; their conditions may differ.

Legend:
pre-LC^PDYN neurons [1] = test: Fibre photometry recording of GCaMP6s signals from pre-LC^PDYN neurons during ingestion or IG infusion; format: in vivo, mice
Protocol: For photometry recording, animals were given either 5- or 10-minutes access to stimuli. To examine sodium specific responses of pre-LC^PDYN neurons (FIGS. 3D, 3E), animals were presented with three solutions during the session. First, animals were given 5 min access to 0.5 M KCl (FIG. 3D) or 0.5 M NaCl+0.1 mM amiloride (FIG. 3E). Then animals had 5 min access to water. Finally, animals were given 5 min access to 0.5 M NaCl. The interval between trials was 5 min. In FIG. 4B, 0.5 M NaCl, deionized water, or glucose solution (5 M) was infused via an intragastric catheter. Solutions were delivered at 0.1 ml/min for 5 min (water and sodium) or 10 min (food) using an infusion syringe pump (NE-300, New Era Pump Systems Inc). 10 min after gastric infusion, animals were given access to nutrients and their consumption was quantified for 10 min (for water and 0.5 M NaCl), or 30 min (for normal chow). Either air infusion (for water), or water infusion (for sodium and food) was used as a control stimulus. In FIG. 4D, either 0.15 M NaCl, water, or air was infused at a rate of 0.1 ml/min while recording the neural activity by photometry. For control, oral ingestion (FIG. 4C), the same set of animals were given access to 0.15 M NaCl. For all photometry assays, animals were acclimatized for 10-15 min in the chamber before stimuli were presented. Bulk fluorescence signals were collected using fibre photometry as previously described. Briefly, data were extracted and subjected to a low-pass filter at 1.8 Hz. A linear function was used to scale up the 405-nm channel signal to the 490-nm channel signal to obtain the fitted 405-nm signal. The resultant ΔF/F was calculated as (raw 490 nm signal−fitted 405 nm signal)/(fitted 405 nm signal). ΔF/F was then time-binned by a factor of 2.5 times the sampling frequency and down-sampled to 10 Hz. For all bouts, the mean fluorescence for 5 min before the first lick was calculated and subtracted from the entire session. The licks from the lickometer were simultaneously recorded. The area under the curve (AUC) was quantified by integrating the baseline-subtracted fluorescence signals for 30 sec after the start of the bout. For FIG. 10D, the data were quantified as ΔF/F change between 1 sec prior to, and at the first lick (0 sec). For IG infusion experiments (FIG. 4E), AUC was quantified during the 5-min of infusion.

pre-LC^PDYN neurons [2] = test: Chemogenetic manipulation, sodium and water consumption; format: in vivo, mice; conditions: CNO 10 mg/kg intraperitoneal
Description: For ChR2 photostimulation. 473 nm laser pulses (20 ms, 20 Hz) were delivered via an optic cable (MFP-FC-ZF, Doric Lenses) using a pulse generator (Sapphire 9200 from Quantum composers or SYS-A310 from WPI). The laser intensity was maintained at 5-10 mW at the tip of the fiber. Unless otherwise noted, photostimulation was delivered for 1 s at 3 s intervals throughout the behavior session. For iC++ photoinhibition, 473 nm laser was continuously turned on throughout the session at 3 mW at the tip of the fiber. For chemogenetic manipulation (FIGS. 8E-H), CNO (Sigma, 10 mg/kg) or vehicle (water) was administered intraperitoneal 20 min before the sodium consumption experiment.
To induce sodium appetite, animals were injected with furosemide (Sigma) at a dose of 50 mg/kg body weight. Low sodium diet (TD. 90228, ENVIGO) was provided for 2 days after the injection of furosemide. For water-restriction experiments, animals were kept in their home cage without water, and were provided with 1 mL of water daily. For food restriction experiments, animals were deprived of food up to 24 hrs with normal water provided. All assays were performed in a custom gustometer (Dialog Instruments) or Biodaq monitoring system (Research Diets Inc). All sodium-depleted animals were trained in a gustometer before experiments. Animals which licked at least 150 licks during the 30-min session were used for further behavioral assays. After every sodium-depletion round, animals were recovered for at least 4 days with the normal diet.
(§1) For appetite specificity assay (FIG. 7C), three different solutions were presented to animals during the same session, and their preference was measured as a lick number. For each trial, 20 sec of photostimulation was delivered to the animal with an inter-trial-interval of 60 secs. Water, 0.5 M KCl, 0.5 M NaCl, or 0.5 M NaCl+30 μM amiloride was used for preference assay. For sodium consumption assay (FIGS. 1E, 1G, and 1H), animals were given ad libitum access to 0.5 M NaCl, water or an empty spout for either 7.5 or 30 min.

[3] = test system: pre-LC^PDYN neurons expressing hM4Di; test: Slice electrophysiology, chemogenetic (hM4Di) inhibition by CNO; format: cell-based; conditions: AAV-DIO-hM4Di-mCherry; 10 μM CNO puffed 10 sec; 2 mice; FIG. 8E
Protocol: 250-μm coronal slices were obtained using a vibratome (VT-1000s, Leica) in ice-cold sucrose-aCSF (artificial cerebrospinal fluid) solution (Sucrose 213, KCl 2.5, NaH2PO4 1.2, NaHCO3 25, glucose 10, MgSO4 7, CaCl2 1, in mM at pH 7.3), and then incubated in HEPES-holding aCSF (NaCl 92, KCl 2.5, NaH2PO4 1.2, NaHCO3 30, HEPES 20, glucose 25, Na-ascorbate 5, thiourea 2, Na-pyruvate 3, MgSO4 2, CaCl2 2, in mM at pH 7.3-7.4). Slices were recovered at 34.5° C. for 45 min and then held at room temperature until use.
For patch-clamp recording, slices were placed in a recording chamber perfused with aCSF (NaCl 124, KCl 2.5, NaH2PO4 1.2, NaHCO3 25, glucose 10, MgSO4 1, CaCl2 2, in mM, at pH 7.3) on an upright microscope (Examiner.D1, Zeiss). Whole-cell recordings were achieved using glass pipettes (5-8 MΩ) filled with intracellular solution (for DREADD and iC++ experiments, K-gluconate 145, NaCl 2, KCl 4, HEPES 10, EGTA 0.2, Mg-ATP 4, Na-GTP 0.3; for GABAergic postsynaptic currents, CsCl 145, NaCl 2, HEPES 10, EGTA 0.2, QX-314 bromide 5, Mg-ATP 4, Na-GTP 0.3, in mM at pH 7.25; for glutamatergic postsynaptic currents, Cs(CH3)SO3 145, NaCl 2, HEPES 10, EGTA 0.2, QX-314 bromide 5, Mg-ATP 4, Na-GTP 0.3, in mM, at pH 7.25). Electrical signals were filtered at 3 k Hz with Axon MultiClamp 700B (Molecular Devices) and collected at 20 kHz with Axon Digidata 1550A (Molecular Devices). […]

[4] = Intragastric infusion and subsequent ingestive behavior; format: in vivo; conditions: sodium-depleted mice
Protocol: In FIG. 4B, 0.5 M NaCl, deionized water, or glucose solution (5 M) was infused via an intragastric catheter. Solutions were delivered at 0.1 ml/min for 5 min (water and sodium) or 10 min (food) using an infusion syringe pump (NE-300, New Era Pump Systems Inc). 10 min after gastric infusion, animals were given access to nutrients and their consumption was quantified for 10 min (for water and 0.5 M NaCl), or 30 min (for normal chow). Either air infusion (for water), or water infusion (for sodium and food) was used as a control stimulus. In FIG. 4D, either 0.15 M NaCl, water, or air was infused at a rate of 0.1 ml/min while recording the neural activity by photometry. For control, oral ingestion (FIG. 4C), the same set of animals were given access to 0.15 M NaCl.

[5] = test system: Pre-LC^PDYN-stimulated animals; test: Preference assay (appetite specificity) under photostimulation of pre-LC^PDYN neurons; format: in vivo, mice; conditions: photostimulated animals; 0.5 M NaCl+30 μM amiloride; FIG. 7C
Protocol: as §1

dBNST→pre-LC neurons = test: Optical recording of calcium responses of dBNST→pre-LC neurons; format: in vivo, mice; conditions: sodium-depleted conditions; FIG. 5F
Protocol: For all photometry assays, animals were acclimatized for 10-15 min in the chamber before stimuli were presented. Bulk fluorescence signals were collected using fibre photometry as previously described. Briefly, data were extracted and subjected to a low-pass filter at 1.8 Hz. A linear function was used to scale up the 405-nm channel signal to the 490-nm channel signal to obtain the fitted 405-nm signal. The resultant ΔF/F was calculated as (raw 490 nm signal−fitted 405 nm signal)/(fitted 405 nm signal). ΔF/F was then time-binned by a factor of 2.5 times the sampling frequency and down-sampled to 10 Hz. For all bouts, the mean fluorescence for 5 min before the first lick was calculated and subtracted from the entire session. The licks from the lickometer were simultaneously recorded. The area under the curve (AUC) was quantified by integrating the baseline-subtracted fluorescence signals for 30 sec after the start of the bout. For FIG. 10D, the data were quantified as ΔF/F change between 1 sec prior to, and at the first lick (0 sec). For IG infusion experiments (FIG. 4E), AUC was quantified during the 5-min of infusion.
To label the dBNST→pre-LC circuit, 100 nl of CAV-Cre was injected into the pre-LC followed by the injection of AAV5-DIO-mCherry or AAV1-flex-GCaMP6S into the dBNST. These animals were used for experiments at least two weeks after the injection.

[Cl-].[K+] [KCl]
pre-LC^PDYN neuron activity upon ingestion of KCl (pre-LC^PDYN neurons [1]; sodium-depleted animals, 0.5 M KCl, FIG. 3D): no suppression was observed; also recorded: did not affect

C[N+]1([O-])CCN(C2=Nc3cc(Cl)ccc3Nc3ccccc32)CC1 [CNO, clozapine N-oxide]
thirst or sodium appetite in control animals (pre-LC^PDYN neurons [2]; AAV-DIO-mCherry injected animals, FIG. 8H): did not affect thirst or sodium appetite
thirst under chemogenetic inhibition (pre-LC^PDYN neurons [2]; hM4Di, FIG. 8G): did not affect thirst
sodium intake under chemogenetic inhibition (pre-LC^PDYN neurons [2]; hM4Di, sodium-depleted animals, FIG. 8G): reduced sodium intake
pre-LC^PDYN neurons inhibited by CNO [3]: 13 out of 14

[Cl-].[Na+] [NaCl]
pre-LC^PDYN neuron activity, low concentration of NaCl (pre-LC^PDYN neurons [1]; 0.06 M NaCl, FIG. 10B): exhibited inhibitory effects
pre-LC^PDYN neuron activity after brief NaCl intake (pre-LC^PDYN neurons [1]; NaCl intake for 1 sec, FIG. 3F): robust suppression for several minutes; also recorded: induced persistent suppression
neural activity of pre-LC^PDYN neurons, IG infusion of NaCl (pre-LC^PDYN neurons [1]; intragastric infusion, 0.15 M NaCl, 0.1 ml/min, FIGS. 4D and 4E): no inhibitory effect; also recorded: not affected
neural activity of pre-LC^PDYN neurons, oral NaCl consumption (pre-LC^PDYN neurons [1]; oral, 0.15 M NaCl, FIGS. 4C and 4E): drastically reduced
subsequent sodium ingestion after gastric preloading of NaCl ([4]; IG 0.5 M NaCl, 0.1 ml/min for 5 min, FIG. 4B left): did not affect
appetite reduction after a long period of IG infusion ([4]; IG NaCl, after 2 hrs): 41.3±6.0%
sodium appetite after oral NaCl contact ([4]; oral, FIG. 4B left): quickly quenched the appetite

N=C(N)NC(=O)c1nc(Cl)c(N)nc1N [amiloride, reference compound]
NaCl consumption in the presence of amiloride [5]: reduced
NaCl-induced suppression of pre-LC^PDYN neurons with amiloride (pre-LC^PDYN neurons [1]; sodium-depleted animals, 0.5 M NaCl+0.1 mM amiloride, FIG. 3E): fully abolished; also recorded: eliminated inhibition
responses of dBNST→pre-LC neurons upon NaCl intake with amiloride (dBNST→pre-LC neurons): strongly inhibited
